# Laboratory results as given in patent US20240066085A1, “MATRIX METALLOPROTEASE 1 EXPRESSION INHIBITOR, SKIN EXTERNAL AGENT, AND USE FOR INHIBITION OF MATRIX METALLOPROTEASE 1 EXPRESSION” (NATIONAL UNIVERSITY CORPORATION KOBE UNIVERSITY, priority 2020, published 2024).
# Experiments:
# MMP-1 expression = assay: UVA-induced MMP-1 expression in HaCaT after PKCδ inhibitor pretreatment; assay type: cell-based, human; details: HaCaT pretreated with PKCδ inhibitor, then UVA irradiation
# Protocol: (§1) The present inventors clarified an expression mechanism of MMP-1 through an experiment. […] The experiment was performed by irradiating HaCaT (epidermal keratinocyte cell line established from a human adult under special ca 2+ concentration and temperature conditions) with ultraviolet rays (UVA).
# When UVA irradiation is performed on HaCaT, the MMP-1 expression amount increases in an irradiation-dependent manner. […] Therefore, it was clarified that PKCδ is involved in expression pathway of MMP-1.
# [1] = test system: ERK and MEK phosphorylation; assay: UVA-induced phosphorylation of ERK and MEK in HaCaT after PKCδ inhibitor pretreatment; assay type: cell-based, human; details: HaCaT pretreated with PKCδ inhibitor, then UVA irradiation
# Protocol: as §1
# However, when a pretreatment of adding rotterlin being a PKCδ inhibitor to HaCaT was performed, and then UVA irradiation was performed on HaCaT, induced expression of phosphorylation of ERK and MEK was suppressed. Therefore, it was clarified that: the activity of PKCδ induces phosphorylation of MEK and ERK downstream of PKC6; and expression of MMP-1 is promoted through c-Jun and the like.
structure (smiles),measurement,setting,value
CC(=O)c1c(O)c(C)c(O)c(Cc2c(O)c3c(c(C(=O)/C=C/c4ccccc4)c2O)OC(C)(C)C=C3)c1O [rotterlin],MMP-1 expression,MMP-1 expression,significantly suppressed
same,induced expression of phosphorylation of ERK and MEK,[1],suppressed
